Experimental findings from PMC7900207, “Checkpoint inhibition through small molecule-induced internalization of programmed death-ligand 1” (Nature Communications, 2021) are described below.

One test deals with T1, cell surface PD-L1 (Homo sapiens, UniProt Q9NZQ7).
T1 construct: gene CD274
The test can be described thus: cell-based.

The subject of the next test is T2, PD-1/PD-L1.
T2 construct: PD-L1 on aAPC/CHO-K1 cells, PD-1 on Jurkat effector cells (Promega)
The test can be described thus: cells. Details: species or system Jurkat PD-1 effector cells with PD-L1 aAPC/CHO-K1; PD-1/PD-L1 blockade bioassay, NFAT luciferase reporter, Bio-Glo luminescence. The following applies: Homo sapiens, Jurkat; NFAT reporter bioassay. As to the method: BioAssay is designed to measure luciferase activity showing the EC50 level of PD-1/PD-L1 blocking by small molecules targeting PD-L1 protein in the cell. PD-1 effector cells were incubated with PD-L1 aAPC/CHO-K1 cells in the absence or presence of small molecules or αPD-L1 blocking antibodies, as indicated titration according to the manufacturer’s instruction (Promega). Bio-Glo™ Reagent was added and luminescence quantified. Data were analyzed using GraphPad Prism. Small molecules were first screened in a cell-free in vitro homogeneous time-resolved fluorescence (HTRF) assay, utilizing αPD-L1 (MIH1) and αPD-1 (nivolumab) antibodies as positive controls. […] It has been reported that a small molecule can stabilize a dimer form of PD-L1 through interactions with antiparallel residues in the hydrophobic dimer interface. To test if compound A can induce intermolecular PD-L1 interactions in solution, we developed a homodimer HTRF assay. […] In this assay, preventing the PD-1/PD-L1 interaction results in a release of constitutive NFAT reporter suppression and increases luciferase activity (relative luminescence units). […] We determined if compound A cellular bioassay potency could translate into immunomodulatory effects on primary human immune cells. […]

For test [1], the target named is T3, programmed death-ligand 1 (PD-L1, hPD-L1) (Homo sapiens, UniProt Q9NZQ7).
T3 construct: gene CD274; human PD-L1(18–134) with 6xHis carboxyl-terminal tag (crystal structure); recombinant Human PD-L1-His (HTRF)
T3 sequence (Q9NZQ7 18-134): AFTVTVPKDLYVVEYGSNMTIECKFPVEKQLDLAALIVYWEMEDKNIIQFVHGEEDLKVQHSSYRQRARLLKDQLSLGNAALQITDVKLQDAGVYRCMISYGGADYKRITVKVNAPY
The test can be described thus: co-crystal structure at […] Å (PD-L1 homodimer); IC50 from PD-1/PD-L1 HTRF assay; PD-L1/PD-L1 dimerization HTRF. It is filed as binding. (TR-FRET usually uses a lanthanide donor and a delayed reading to cut background.)

T1 sequence (Q9NZQ7 whole entry): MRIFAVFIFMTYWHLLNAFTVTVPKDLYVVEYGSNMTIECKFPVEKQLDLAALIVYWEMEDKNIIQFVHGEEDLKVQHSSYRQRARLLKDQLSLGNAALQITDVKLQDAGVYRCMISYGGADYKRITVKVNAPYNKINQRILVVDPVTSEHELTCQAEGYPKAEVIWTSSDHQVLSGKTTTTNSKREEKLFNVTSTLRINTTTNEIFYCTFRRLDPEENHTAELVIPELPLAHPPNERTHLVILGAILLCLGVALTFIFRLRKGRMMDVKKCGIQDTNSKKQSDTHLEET

Molecule `Cc1c(NC(=O)c2ccc(CNCCO)cn2)cccc1-c1cccc(NC(=O)c2ccc(CNCCO)cn2)c1C` [ARB-272572] returned an IC50 on cell surface PD-L1 of 2.1 nM. In the test with PD-1/PD-L1, the EC50 is 17.9 nM.

Turning to `Cc1c(NC(=O)c2ccc(CNCCO)cn2)cccc1-c1cccc(NC(=O)c2ccc(CNCCO)cn2)c1C` [compound A, ARB-272572], the IC50 in test [1] was determined as 0.4 nM.

As usually defined, the IC50 is the concentration at which inhibition is half-maximal. Lower therefore signals higher potency. One may read the EC50 as the concentration needed to bring the measured effect to its halfway point. A high value points to a need for much substance.
